# “And” between values parts separate entries of the source, which are not always exact repeats. Identical values can stand only once.
# Tests used:
# Assay type in all cases: functional
# [1] = system: HL-60; assay: Cytotoxicity against human HL60 cells
# [2] = system: MOLT-4; assay: Cytotoxicity against human MOLT4 cells
# [3] = system: RPMI-8226; assay: Cytotoxicity against human RPMI8226 cells
# [4] = system: SR; assay: Cytotoxicity against human SR cells
# [5] = system: A549; assay: Cytotoxicity against human A549 cells
# [6] = system: EKVX; assay: Cytotoxicity against human EKVX cells
# [7] = system: HOP-62; assay: Cytotoxicity against human HOP62 cells
# [8] = system: HOP-92; assay: Cytotoxicity against human HOP92 cells
# [9] = system: NCI-H226; assay: Cytotoxicity against human NCI-H226 cells
# [10] = system: NCI-H23; assay: Cytotoxicity against human NCI-H23 cells
# [11] = system: NCI-H322M; assay: Cytotoxicity against human NCI-H322M cells
# [12] = system: NCI-H460; assay: Cytotoxicity against human NCI-H460 cells
# [13] = system: COLO 205; assay: Cytotoxicity against human COLO205 cells
# [14] = system: HCC 2998; assay: Cytotoxicity against human HCC2998 cells
# [15] = system: HCT-116; assay: Cytotoxicity against human HCT116 cells
# [16] = system: HCT-15; assay: Cytotoxicity against human HCT15 cells
# [17] = system: KM12; assay: Cytotoxicity against human KM12 cells
# [18] = system: SW-620; assay: Cytotoxicity against human SW620 cells
# [19] = system: SF-268; assay: Cytotoxicity against human SF268 cells
# [20] = system: SF-295; assay: Cytotoxicity against human SF295 cells
# [21] = system: SF-539; assay: Cytotoxicity against human SF539 cells
# [22] = system: SNB-19; assay: Cytotoxicity against human SNB19 cells
# [23] = system: SNB-75; assay: Cytotoxicity against human SNB75 cells
# [24] = system: M14; assay: Cytotoxicity against human M14 cells
# [25] = system: SK-MEL-2; assay: Cytotoxicity against human SK-MEL-2 cells
# [26] = system: SK-MEL-28; assay: Cytotoxicity against human SK-MEL-28 cells
# [27] = system: SK-MEL-5; assay: Cytotoxicity against human SK-MEL-5 cells
# [28] = system: UACC-62; assay: Cytotoxicity against human UACC62 cells
# [29] = system: OVCAR-3; assay: Cytotoxicity against human OVCAR-3 cells
# [30] = system: OVCAR-4; assay: Cytotoxicity against human OVCAR4 cells
# [31] = system: OVCAR-5; assay: Cytotoxicity against human OVCAR5 cells
# [32] = system: OVCAR-8; assay: Cytotoxicity against human OVCAR8 cells
# [33] = system: A498; assay: Cytotoxicity against human A498 cells
# [34] = system: ACHN; assay: Cytotoxicity against human ACHN cells
# [35] = system: RXF 393; assay: Cytotoxicity against human RXF393 cells
# [36] = system: SN12C; assay: Cytotoxicity against human SN12C cells
# [37] = system: TK-10; assay: Cytotoxicity against human TK10 cells
# [38] = system: UO-31; assay: Cytotoxicity against human UO31 cells
# [39] = system: PC-3; assay: Cytotoxicity against human PC3 cells
# [40] = system: DU-145; assay: Cytotoxicity against human DU145 cells
# [41] = system: MCF7; assay: Cytotoxicity against human MCF7 cells
# [42] = system: NCI/ADR-RES; assay: Cytotoxicity against human NCI/ADR-RES cells
# [43] = system: MDA-MB-231; assay: Cytotoxicity against human MDA-MB-231 cells
# [44] = Cytotoxicity against human HS578T cells; conditions: Hs-578T
# [45] = system: BT-549; assay: Cytotoxicity against human BT549 cells
# [46] = system: T47D; assay: Cytotoxicity against human T47D cells
# [47] = read-out: Log LC50 (the source's name) (converted)
smiles,measurement,setting,value
CC(=O)O[C@H]1C[C@H]2[C@@](C)(CC[C@H]3C(C)(C)CCC[C@@]32CO)[C@@H]2CC=C(C(C)=O)[C@H](C=O)[C@@]12C,GI50,"[1]; Homo sapiens, HL-60",170 nM
same,TGI,[1]; read-out: Log TGI (converted),537 nM and 2630 nM
same,GI50,[2],195 nM
same,CC50,[2]; [47],1950 nM
same,TGI,[2]; read-out: Log TGI (converted),513 nM
same,GI50,[3],427 nM
same,CC50,[3]; [47],8130 nM
same,TGI,[3]; read-out: Log TGI (converted),1820 nM
same,GI50,[4],288 nM
same,CC50,[4]; [47],3720 nM
same,TGI,[4]; read-out: Log TGI (converted),759 nM
same,GI50,[5],562 nM
same,CC50,[5]; [47],4680 nM
same,TGI,[5]; read-out: Log TGI (converted),1860 nM
same,GI50,[6],832 nM
same,CC50,[6]; [47],4900 nM
same,TGI,[6]; read-out: Log TGI (converted),2140 nM
same,GI50,[7],295 nM
same,CC50,[7]; [47],2450 nM
same,TGI,[7]; read-out: Log TGI (converted),724 nM
same,GI50,[8],1350 nM
same,CC50,[8]; [47],5500 nM
same,TGI,[8]; read-out: Log TGI (converted),2750 nM
same,GI50,[9],1380 nM
same,CC50,[9]; [47],> 100000 nM
same,TGI,[9]; read-out: Log TGI (converted),2820 nM
same,GI50,[10],1410 nM
same,CC50,[10]; [47],5500 nM
same,TGI,[10]; read-out: Log TGI (converted),2750 nM
same,GI50,[11],1910 nM
same,CC50,[11]; [47],7590 nM
same,TGI,[11]; read-out: Log TGI (converted),3800 nM
same,GI50,[12],759 nM
same,CC50,[12]; [47],6030 nM
same,TGI,[12]; read-out: Log TGI (converted),2290 nM
same,GI50,[13],295 nM
same,CC50,[13]; [47],4370 nM
same,TGI,[13]; read-out: Log TGI (converted),1320 nM
same,GI50,[14],1000 nM
same,CC50,[14]; [47],4790 nM
same,TGI,[14]; read-out: Log TGI (converted),2190 nM
same,GI50,[15],186 nM
same,CC50,[15]; [47],676 nM
same,TGI,[15]; read-out: Log TGI (converted),355 nM
same,GI50,[16],224 nM
same,CC50,[16]; [47],1230 nM
same,TGI,[16]; read-out: Log TGI (converted),490 nM
same,GI50,[17],501 nM
same,CC50,[17]; [47],4570 nM
same,TGI,[17]; read-out: Log TGI (converted),1700 nM
same,GI50,[18],162 nM
same,CC50,[18]; [47],676 nM
same,TGI,[18]; read-out: Log TGI (converted),331 nM
same,GI50,[19],447 nM
same,CC50,[19]; [47],6170 nM
same,TGI,[19]; read-out: Log TGI (converted),1860 nM
same,GI50,[20],479 nM
same,CC50,[20]; [47],4270 nM
same,TGI,[20]; read-out: Log TGI (converted),1740 nM
same,GI50,[21],195 nM
same,CC50,[21]; [47],794 nM
same,TGI,[21]; read-out: Log TGI (converted),389 nM
same,GI50,[22],1120 nM
same,CC50,[22]; [47],5750 nM
same,TGI,[22]; read-out: Log TGI (converted),2570 nM
same,GI50,[23],355 nM
same,CC50,[23]; [47],3470 nM
same,TGI,[23]; read-out: Log TGI (converted),1120 nM
same,GI50,[24],1000 nM
same,CC50,[24]; [47],4900 nM
same,TGI,[24]; read-out: Log TGI (converted),2240 nM
same,GI50,[25],1620 nM
same,CC50,[25]; [47],8130 nM
same,TGI,[25]; read-out: Log TGI (converted),3630 nM
same,GI50,[26],251 nM
same,CC50,[26]; [47],2290 nM
same,TGI,[26]; read-out: Log TGI (converted),631 nM
same,GI50,[27],501 nM
same,CC50,[27]; [47],4070 nM
same,TGI,[27]; read-out: Log TGI (converted),1700 nM
same,GI50,[28],1480 nM
same,CC50,[28]; [47],5370 nM
same,TGI,[28]; read-out: Log TGI (converted),2820 nM
same,GI50,[29],204 nM
same,CC50,[29]; [47],676 nM
same,TGI,[29]; read-out: Log TGI (converted),372 nM
same,GI50,[30],575 nM
same,CC50,[30]; [47],5010 nM
same,TGI,[30]; read-out: Log TGI (converted),1910 nM
same,GI50,[31],832 nM
same,CC50,[31]; [47],4680 nM
same,TGI,[31]; read-out: Log TGI (converted),2090 nM
same,GI50,[32],263 nM
same,TGI,[32]; read-out: Log TGI (converted),692 nM
same,GI50,[33],1480 nM
same,LC50,[33],5890 nM
same,TGI,[33]; read-out: Log TGI (converted),2950 nM
same,GI50,[34],282 nM
same,LC50,[34],3240 nM
same,TGI,[34]; read-out: Log TGI (converted),1070 nM
same,GI50,[35],295 nM
same,LC50,[35],3630 nM
same,TGI,[35]; read-out: Log TGI (converted),1120 nM
same,GI50,[36],1200 nM
same,LC50,[36],5010 nM
same,TGI,[36]; read-out: Log TGI (converted),2450 nM
same,GI50,[37],302 nM
same,LC50,[37],3390 nM
same,TGI,[37]; read-out: Log TGI (converted),891 nM
same,GI50,[38],417 nM
same,LC50,[38],3980 nM
same,TGI,[38]; read-out: Log TGI (converted),1450 nM
same,GI50,[39],380 nM
same,LC50,[39],3800 nM
same,TGI,[39]; read-out: Log TGI (converted),1350 nM
same,GI50,[40],457 nM
same,LC50,[40],3980 nM
same,TGI,[40]; read-out: Log TGI (converted),1580 nM
same,GI50,[41],776 nM
same,LC50,[41],25700 nM
same,TGI,[41]; read-out: Log TGI (converted),3470 nM
same,GI50,[42],1070 nM
same,LC50,[42],6170 nM
same,TGI,[42]; read-out: Log TGI (converted),2570 nM
same,GI50,[43],891 nM
same,LC50,[43],4570 nM
same,TGI,[43]; read-out: Log TGI (converted),2090 nM
same,GI50,[44],240 nM
same,LC50,[44],3240 nM
same,TGI,[44]; read-out: Log TGI (converted),646 nM
same,GI50,[45],214 nM
same,LC50,[45],977 nM
same,TGI,[45]; read-out: Log TGI (converted),457 nM
same,GI50,[46],1020 nM
same,LC50,[46],8910 nM
same,TGI,[46]; read-out: Log TGI (converted),3020 nM
